Source: patent US11566007B2, “Ras inhibitors” (Revolution Medicines, Inc., priority 2019, dated 2023)

Experiments:
[1] = target: KRAS G12V (Homo sapiens (Human), UniProt P01116+P62937, G12V); assay: Ras-Raf (BRAF RBD) disruption / FRET / MOA assay, KRAS G12V; assay type: biochemical; conditions: read-out: IC50* KRAS G12V FRET data
Outline: (§1)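 Ras:RAF disruption was scored as a fall in TR-FRET ratio relative to DMSO. Compound ranged in 3-fold steps over 10 points from 30 μM final; incubation ran 3 h at 25° C, detection antibodies a further 1.5 h. Reported as IC50.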

[2] = target: NRAS G12C (Homo sapiens (Human), UniProt P01111+P62937, G12C); assay: Ras-Raf (BRAF RBD) disruption / FRET / MOA assay, NRAS G12C; assay type: biochemical; conditions: read-out: IC50* NRAS G12C FRET data
Chain of NRAS G12C (P01111 whole entry G12C): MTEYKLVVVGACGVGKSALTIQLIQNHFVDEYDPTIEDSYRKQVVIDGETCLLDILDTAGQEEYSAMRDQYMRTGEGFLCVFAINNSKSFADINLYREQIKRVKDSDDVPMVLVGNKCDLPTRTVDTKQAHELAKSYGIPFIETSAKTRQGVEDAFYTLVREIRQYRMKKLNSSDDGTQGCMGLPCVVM
Chain of NRAS G12C (P62937 whole entry): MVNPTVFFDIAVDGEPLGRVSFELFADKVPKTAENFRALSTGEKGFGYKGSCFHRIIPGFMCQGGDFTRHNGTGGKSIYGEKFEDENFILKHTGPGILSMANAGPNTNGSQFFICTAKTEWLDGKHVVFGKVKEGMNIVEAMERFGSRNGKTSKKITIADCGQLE
Outline: as §1

[3] = target: NRAS Q61K (Homo sapiens (Human), UniProt P01111+P62937, Q61K); assay: Ras-Raf (BRAF RBD) disruption / FRET / MOA assay, NRAS Q61K; assay type: biochemical; conditions: NRAS Q61K; Ras-Raf disruption/FRET/MOA assay; read-out: IC50* NRAS Q61K FRET data
Chain of NRAS Q61K (P01111 whole entry Q61K): as the sequence (P01111 whole entry G12C) above, with C12G, Q61K counted along it
Chain of NRAS Q61K (P62937 whole entry): as the sequence (P62937 whole entry) above
Outline: (§2)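 TR-FRET disruption of nucleotide-loaded Ras binding to BRAF RBD via compound-driven ternary complex with cyclophilin A. Compound as 10-point 3-fold series from 30 μM final, 3 h at 25° C, then anti-His Eu-W1024 (10 nM) and anti-GST allophycocyanin (50 nM) for 1.5 h. IC50 from decreased FRET ratio versus DMSO.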

[4] = target: NRAS Q61R (Homo sapiens (Human), UniProt P01111+P62937, Q61R); assay: Ras-Raf (BRAF RBD) disruption / FRET / MOA assay, NRAS Q61R; assay type: biochemical; conditions: NRAS Q61R; Ras-Raf disruption/FRET/MOA assay; read-out: IC50* NRAS Q61R FRET data
Chain of NRAS Q61R (P01111 whole entry Q61R): as the sequence (P01111 whole entry G12C) above, with C12G, Q61R counted along it
Chain of NRAS Q61R (P62937 whole entry): as the sequence (P62937 whole entry) above
Outline: as §2

[5] = target: KRAS WT (Homo sapiens (Human), UniProt P01116+P62937); assay: Ras-Raf (BRAF RBD) disruption / FRET / MOA assay, KRAS WT; assay type: biochemical; conditions: read-out: IC50* KRAS WT FRET data
Chain of KRAS WT (P01116-2 other isoform, or with tags, fused parts or gaps): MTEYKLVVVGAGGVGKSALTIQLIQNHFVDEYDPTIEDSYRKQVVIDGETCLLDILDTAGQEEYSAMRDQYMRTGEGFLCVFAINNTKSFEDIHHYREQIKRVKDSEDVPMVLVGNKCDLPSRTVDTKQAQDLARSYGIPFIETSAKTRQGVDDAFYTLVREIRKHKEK
Chain of KRAS WT (P62937 whole entry): as the sequence (P62937 whole entry) above
Outline: as §1

[6] = target: K-Ras G12C (Homo sapiens (Human), UniProt P01116+P62937, G12C); assay: Ras-Raf (BRAF RBD) disruption / FRET / MOA assay, KRAS G12C; assay type: biochemical; conditions: KRAS G12C; Ras-Raf disruption/FRET/MOA assay; read-out: IC50* KRAS G12C FRET data
Chain of K-Ras G12C (P01116-2 other isoform, or with tags, fused parts or gaps G12C): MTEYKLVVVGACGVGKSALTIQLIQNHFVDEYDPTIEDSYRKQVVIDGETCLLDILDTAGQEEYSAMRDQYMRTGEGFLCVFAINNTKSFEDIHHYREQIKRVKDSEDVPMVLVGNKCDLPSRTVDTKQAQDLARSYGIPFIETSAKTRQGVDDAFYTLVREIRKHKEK
Chain of K-Ras G12C (P62937 whole entry): as the sequence (P62937 whole entry) above
Outline: as §1

[7] = target: KRAS G12S (Homo sapiens (Human), UniProt P01116+P62937, G12S); assay: Ras-Raf (BRAF RBD) disruption / FRET / MOA assay, KRAS G12S; assay type: biochemical; conditions: Ras-Raf disruption/FRET/MOA assay; class symbols; read-out: KRAS G12S FRET data IC50
Chain of KRAS G12S (P01116-2 other isoform, or with tags, fused parts or gaps G12S): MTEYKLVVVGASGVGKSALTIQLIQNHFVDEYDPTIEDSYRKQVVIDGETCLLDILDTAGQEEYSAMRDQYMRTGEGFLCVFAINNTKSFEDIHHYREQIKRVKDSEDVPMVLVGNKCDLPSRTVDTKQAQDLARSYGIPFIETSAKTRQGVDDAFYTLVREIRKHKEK
Chain of KRAS G12S (P62937 whole entry): as the sequence (P62937 whole entry) above
Outline: as §1

[8] = target: NRAS WT (Homo sapiens (Human), UniProt P01111+P62937); assay: Ras-Raf (BRAF RBD) disruption / FRET / MOA assay, NRAS WT; assay type: biochemical; conditions: read-out: IC50* NRAS WT FRET data
Chain of NRAS WT (P01111 whole entry): as the sequence (P01111 whole entry G12C) above, with C12G counted along it
Chain of NRAS WT (P62937 whole entry): as the sequence (P62937 whole entry) above
Outline: as §2

[9] = tested on: NCI-H358 (K-Ras G12C); assay: CellTiter-Glo cell viability assay, NCI-H358; assay type: cell-based, human; conditions: Homo sapiens, NCI-H358, 120 h, NCI-H358, 5-day treatment; class symbols; read-out: Additional H358 Cell Viability assay data (K-Ras G12C, IC50)
Outline: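 Luminescent viability readout on day 5 after direct compound addition to plated cells; plates sat ~30 min at room temperature before reading. Values expressed as percent of mean DMSO signal, curves fit with a four-parameter logistic model.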

[10] = target: KRAS G12D (Homo sapiens (Human), UniProt P01116+P62937, G12D); assay: Ras-Raf (BRAF RBD) disruption / FRET / MOA assay, KRAS G12D; assay type: biochemical; conditions: Ras-Raf disruption/FRET/MOA assay; class symbols; read-out: KRAS G12D FRET data IC50
Chain of KRAS G12D (P01116-2 other isoform, or with tags, fused parts or gaps G12D): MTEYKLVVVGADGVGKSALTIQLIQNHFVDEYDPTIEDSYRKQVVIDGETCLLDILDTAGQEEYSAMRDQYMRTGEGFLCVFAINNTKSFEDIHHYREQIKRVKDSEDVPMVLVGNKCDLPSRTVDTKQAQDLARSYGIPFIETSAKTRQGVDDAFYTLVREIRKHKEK
Chain of KRAS G12D (P62937 whole entry): as the sequence (P62937 whole entry) above
Outline: as §1

[11] = target: KRAS Q61H (Homo sapiens (Human), UniProt P01116+P62937, Q61H); assay: Ras-Raf (BRAF RBD) disruption / FRET / MOA assay, KRAS Q61H; assay type: biochemical; conditions: Ras-Raf disruption/FRET/MOA assay; class symbols; read-out: KRAS Q61H FRET data IC50
Chain of KRAS Q61H (P01116-2 other isoform, or with tags, fused parts or gaps Q61H): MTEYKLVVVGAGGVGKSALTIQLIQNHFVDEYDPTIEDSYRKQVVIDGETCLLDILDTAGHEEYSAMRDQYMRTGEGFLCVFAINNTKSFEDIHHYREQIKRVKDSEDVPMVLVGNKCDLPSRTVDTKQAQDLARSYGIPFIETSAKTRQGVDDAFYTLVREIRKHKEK
Chain of KRAS Q61H (P62937 whole entry): as the sequence (P62937 whole entry) above
Outline: as §2

Chain of KRAS G12V (P01116-2 other isoform, or with tags, fused parts or gaps G12V): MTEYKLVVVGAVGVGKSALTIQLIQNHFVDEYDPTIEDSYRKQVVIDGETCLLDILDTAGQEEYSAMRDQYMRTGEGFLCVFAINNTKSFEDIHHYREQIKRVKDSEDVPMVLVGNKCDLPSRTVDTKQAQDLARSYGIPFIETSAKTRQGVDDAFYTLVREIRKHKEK
Chain of KRAS G12V (P62937 whole entry): as the sequence (P62937 whole entry) above

Row | SMILES | IC50 [1] [nM] | IC50 [2] [nM] | IC50 [3] [nM] | IC50 [4] [nM] | IC50 [5] [nM] | IC50 [6] [nM] | IC50 [7] [nM] | IC50 [8] [nM] | IC50 [9] [nM] | IC50 [10] [nM] | IC50 [11] [nM]
1 | CO[C@@H](C)c1ncccc1-c1c2c3cc(ccc3n1CC(F)(F)F)-c1csc(n1)C[C@H](NC(=O)[C@H](C(C)C)N(C)C(=O)N1CCC3(CC1)CN(C(=O)/C=C/CF)C3)C(=O)N1CCC[C@H](N1)C(=O)OCC(C)(C)C2 (atropisomer, axis not shown) [Example A602] | 10 to 100 | 10 to 100 | 10 to 100 | 10 to 100 | 10 to 100 | 10 to 100 | 10 to 100 | 10 to 100 | < 10 | 100 to 1000 | 10 to 100
2 | C=CC(=O)N1CCOC2(CCN(C(=O)N(C)[C@H](C(=O)N[C@H]3Cc4nc(n(C)n4)-c4ccc5c(c4)c(c(-c4cccnc4[C@H](C)OC)n5CC(F)(F)F)CC(C)(C)COC(=O)[C@@H]4CCCN(N4)C3=O)C(C)C)CC2)C1 (atropisomer, axis not shown) [Example A606] | 100 to 1000 | 100 to 1000 | 100 to 1000 | 100 to 1000 | 100 to 1000 | 100 to 1000 | 100 to 1000 | 100 to 1000 | 100 to 1000 | 1000 to 10000 | 10 to 100
3 | C=CC(=O)N1CC2(C1)OCCN2C(=O)N(C)[C@H](C(=O)N[C@H]1Cc2nc(cs2)-c2ccc3c(c2)c(c(-c2cccnc2[C@H](C)OC)n3CC)CC(C)(C)COC(=O)[C@@H]2CCCN(N2)C1=O)C(C)C (atropisomer, axis not shown) [Example A620] | 100 to 1000 | < 10 | 10 to 100 | 100 to 1000 | 100 to 1000 | < 10 | 100 to 1000 | 100 to 1000 | < 10 | 1000 to 10000 | 10 to 100
4 | CCn1c(-c2cccnc2[C@H](C)OC)c2c3cc(ccc31)-c1cccc(n1)C[C@H](NC(=O)[C@H](C(C)C)N(C)C(=O)N1CCC13CN(C(=O)C#CC(C)(C)N(C)C)C3)C(=O)N1CCC[C@H](N1)C(=O)OCC(C)(C)C2 (atropisomer, axis not shown) [Example A623] | 1000 to 10000 | 100 to 1000 | 100 to 1000 | 1000 to 10000 | 1000 to 10000 | 100 to 1000 | 1000 to 10000 | 1000 to 10000 | 10 to 100 | 1000 to 10000 | 100 to 1000
5 | CCn1c(-c2cccnc2[C@H](C)OC)c2c3cc(ccc31)-c1csc(n1)C[C@H](NC(=O)C[C@H](C)OC1CN(C(=O)C#CC(C)(C)N(C)C)C1)C(=O)N1CCC[C@H](N1)C(=O)OCC(C)(C)C2 (atropisomer, axis not shown) [Example A637] | 1000 to 10000 | 10 to 100 | 1000 to 10000 | > 10000 | 1000 to 10000 | 10 to 100 | 1000 to 10000 | 1000 to 10000 | 10 to 100 | > 10000 | 1000 to 10000
6 | CO[C@@H](C)c1ncccc1-c1c2c3cc(ccc3n1CC(F)(F)F)N1CCO[C@@H](C[C@H](NC(=O)[C@H](C(C)C)N3CC[C@]4(CCN(C(=O)C#CC(C)(C)N(C)C)C4)C3=O)C(=O)N3CCC[C@H](N3)C(=O)OCC(C)(C)C2)C1 (atropisomer, axis not shown) [Example A642] | 1000 to 10000 | < 10 | > 10000 | > 10000 | 1000 to 10000 | < 10 | 1000 to 10000 | 1000 to 10000 | < 10 | > 10000 | 1000 to 10000
7 | CCn1c(-c2cccnc2[C@H](C)OC)c2c3cc(ccc31)N1CCO[C@@H](C[C@H](NC(=O)[C@H](C(C)C)N(C)C(=O)C3(F)CCN(C(=O)C#CC(C)(C)N(C)C)CC3)C(=O)N3CCC[C@H](N3)C(=O)OCC(C)(C)C2)C1 (atropisomer, axis not shown) [Example A647, 1-(4-(dimethylamino)-4-methylpent-2-ynoyl)-N-((2S)-1-(((2^2S,6^3S,4S)-1^1-ethyl-1^2-(2-((S)-1-methoxyethyl)pyridin-3-yl)-10,10-dimethyl-5,7-dioxo-6^1,6^2,6^3,6^4,6^5,6^6-hexahydro-1^1H-8-oxa-2(4,2)-morpholina-1(5,3)-indola-6(1,3)-pyridazinacycloundecaphane-4-yl)amino)-3-methyl-1-oxobutan-2-yl)-4-fluoro-N-methylpiperidine-4-carboxamide] | 1000 to 10000 | < 10 | 1000 to 10000 | 1000 to 10000 | 100 to 1000 | < 10 | 1000 to 10000 | 100 to 1000 | < 10 | 1000 to 10000 | 1000 to 10000
8 | C=CC(=O)N1CC[C@]2(C1)OCN([C@H](C(=O)N[C@H]1Cc3cccc(n3)-c3ccc4c(c3)c(c(-c3cccnc3[C@H](C)OC)n4CC)CC(C)(C)COC(=O)[C@@H]3CCCN(N3)C1=O)C(C)C)C2=O (atropisomer, axis not shown) [Example A652] | 1000 to 10000 | 100 to 1000 | 1000 to 10000 | 1000 to 10000 | 1000 to 10000 | 100 to 1000 | 1000 to 10000 | 1000 to 10000 | 100 to 1000 | > 10000 | 1000 to 10000
9 | CCn1c(-c2cccnc2[C@H](C)OC)c2c3cc(ccc31)-c1cc(CF)cc(c1)C[C@H](NC(=O)[C@H](C(C)C)N(C)C(=O)[C@H]1CCN(C(=O)C#CC(C)(C)N(C)C)C1)C(=O)N1CCC[C@H](N1)C(=O)OCC(C)(C)C2 (atropisomer, axis not shown) [Example A658] | 1000 to 10000 | < 10 | > 10000 | 1000 to 10000 | 1000 to 10000 | < 10 | 1000 to 10000 | 1000 to 10000 | < 10 | 1000 to 10000 | 1000 to 10000
10 | C=CC(=O)N1CC2(CCCN2C(=O)N(C)[C@H](C(=O)N[C@H]2Cc3nc(cs3)-c3ccc4c(c3)c(c(-c3cccnc3[C@H](C)OC)n4CC)CC(C)(C)COC(=O)[C@@H]3CCCN(N3)C2=O)C(C)C)C1 (atropisomer, axis not shown) [Example A667] | 100 to 1000 | < 10 | 10 to 100 | 10 to 100 | 10 to 100 | < 10 | 100 to 1000 | 10 to 100 | < 10 | 100 to 1000 | 10 to 100
11 | CCn1c(-c2cccnc2[C@H](C)OC)c2c3cc(ccc31)-c1cc(CF)cc(c1)C[C@H](NC(=O)[C@H](C(C)C)N1CC[C@]3(CCN(C(=O)C#CC(C)(C)N(C)C)C3)C1=O)C(=O)N1CCC[C@H](N1)C(=O)OCC(C)(C)C2 (atropisomer, axis not shown) [Example A673] | 100 to 1000 | < 10 | 1000 to 10000 | 1000 to 10000 | 1000 to 10000 | < 10 | 1000 to 10000 | 1000 to 10000 | < 10 | 1000 to 10000 | 100 to 1000
12 | CCn1c(-c2cccnc2[C@H](C)OC)c2c3cc(ccc31)-c1cccc(c1)C[C@H](NC(=O)[C@H](C(C)C)N(C)C(=O)C1(F)CCN(C(=O)/C=C/CN(C)C)CC1)C(=O)N1CCC[C@H](N1)C(=O)OCC(C)(C)C2 (atropisomer, axis not shown) [Example A685] | 100 to 1000 | 10 to 100 | 100 to 1000 | 100 to 1000 | 100 to 1000 | 10 to 100 | 100 to 1000 | 100 to 1000 | < 10 | 100 to 1000 | 100 to 1000
